Measured values from patent US10768174B2, “Attachment of proteins to interfaces for use in nonlinear optical detection” (Bluelight Therapeutics, Inc., priority 2014, dated 2020).

How the values were obtained:
calmodulin (CaM) = molecular target: T1, calmodulin (CaM) (Homo sapiens, UniProt P0DP23); test: SHG detection of ligand-induced conformational change of labeled calmodulin tethered to Ni-NTA supported lipid bilayer; type: binding; settings: buffer containing 1 mM CaCl2 injected; N=3
T1 construct: purchased EMD Millipore (Billerica, Mass.)
Description: MBP and CaM Proteins: To explore the ability of our SHG bilayer system to detect and measure conformational changes of a protein, we began by testing the system on CaM and MBP, two proteins previously studied by SHG [32, 33]. First, we tethered labeled CaM to the SLB surface and monitored the change in SHG intensity upon addition of the calmodulin binding peptide (CBP) in the presence or absence of calcium-containing buffers. […] When calcium is omitted from the buffer, addition of the peptide alone results in M=3.1%, (N=3, SEM±1.6) change in SHG intensity, essentially no change (FIG. 7B). […] Next, we evaluated the effect of adding calcium ions. […] Peptide was then added directly to these samples two minutes after calcium addition, producing a positive signal change of M=8.7% (N=3, SEM±0.4). As the magnitude of the SHG signal is proportional to the net, average orientation of the dye label relative to the surface normal, the different magnitudes of SHG signal change upon binding CBP and calcium to unbound CaM confirm that these ligands bind to specific and different conformations of the protein. SHG signal changes can occur in either the positive or negative direction relative to baseline depending on whether the net, average orientation of the probe moves closer to or further away from the surface normal, respectively. […]
(§1) SHG signal was monitored over several minutes after injection.

[1] = molecular target: monomeric forms of avidin or streptavidin; settings: read-out: biotin-binding affinity of monomeric forms of avidin or streptavidin; cited from earlier work
His-tag-Ni-NTA linkage = test: Specificity of protein attachment to bilayer: incubation with or without imidazole, SHG signal; type: binding; settings: imidazole 350 mM (FIG. 6A legend) / 300 mM (methods)
Method: We began by characterizing the attachment of the proteins to our SLB surface. The SLB surface we employed has integrated immobilized metal affinity (Ni-NTA) chemistry to specifically tether the proteins to the bilayer in an oriented manner via a poly-histidine tag at the N- or C-terminus. To test the specificity of this interaction, each protein was incubated on the bilayer in the presence or absence of imidazole, a competitive inhibitor of His-tagged protein binding. […] When labeled protein is incubated in the presence of imidazole, SHG signal levels are reduced to less than 10% of the original signal or to background levels, i.e. to those of bilayer alone.

[2] = molecular target: T2, maltose binding protein (MBP) (Escherichia coli, UniProt P0AEX9); test: SHG detection of ligand-induced conformational change of lysine-labeled MBP tethered to Ni-NTA supported lipid bilayer; set-up: purchased AtGen Co, Ltd (Seongnam-si, Gyeonggi-do, South Korea); settings: for change in SHG intensity (M): 2 mM maltose, MBP labeled at pH 7.5, N=3; for change in SHG signal (M): 2 mM, MBP labeled at pH 8.3, N=4
Method: We also performed a similar set of experiments with MBP. First, we monitored the SHG intensity of MBP labeled at pH 8.3 upon addition of buffer, lactose, or maltose. […] Because the addition of both 2 mM lactose and buffer alone result in negligible changes in SHG intensity, the change in SHG intensity upon maltose addition is specific to ligand-induced conformational change upon binding.
The converse trend, preference at K88 over K15, was observed when the experimental conditions changed to pH 8.3. […] Based on inspection of the crystal structures, we hypothesized that when MBP is primarily labeled at K15 rather than K88, this could alter the directionality of SHG signal change upon ligand addition relative to the reverse case, since K15 and K88 appear to rotate towards and away from the surface normal, respectively, assuming the protein is oriented with its N-terminus facing the bilayer. […] Consistent with previous results, the addition of lactose and buffer alone had no effect.
J Am Chem Soc 136(29):10349-10360). […] (under standard kinetic condition described in ref [28].
Excess protein was removed by additional washes after incubation.
as §1

[3] = molecular target: T2, maltose binding protein (MBP); test: Example 2 SHG kinetic reads of PyMPO-labeled His-tagged MBP tethered on 10% Ni-NTA bilayer; settings: 10 uL injection of 2 mM solution into 10 uL well; 10% Ni-NTA tethered MBP
Method: Protein labeling protocol: Stock His-tagged maltose binding protein (MBP) (1 mL at nominal 0.5 mg/mL) was buffer exchanged from 20 mM Tris-HCL pH 8.0, 0.1 M NaCl, 10% Glycerol into 0.1 M Na phosphate, pH 7.5 by passing over two of the 2 mL Zeba™ Spin Desalting Columns (Thermo Scientific) equilibrated per the manufacturer's instructions. Concentration and volume of the buffer exchanged material were determined by measuring absorbance on a NanoDrop Spectrophotometer (Thermo Scientific). PyMPO-NHS was weighed out and dissolved to 2 mM in dry DMSO. PyMPO-NHS was added to the buffer exchanged MBP at 3.5:1 mole equivalents. The conjugation reaction was allowed to proceed in the dark at room temp, stirring gently, for 15 minutes. The reaction was terminated by buffer exchange back into the MBP storage buffer (20 mM Tris-HCL pH 8.0, 0.1 M NaCl, 10% Glycerol) over a fresh pair of Zeba™ Spin Desalting Columns. The resultant conjugate was centrifuged at 16K×g for 20 minutes at 4° C., and volume, concentration and degree of labeling was determined for the supernatant by measuring absorbance at 280 nm and 410 nm on the NanoDrop. […]
Scanning: The entire slide was line scanned to gather SHG data for determining the relative tethering efficiency of 3% vs 10% Ni-NTA surfaces. Well positions for 10% Ni-NTA tethered MBP were recorded and used to set up the MBP kinetic reads (3 wells total). […]

In the case of `[Ca+2].[Cl-].[Cl-]` [CaCl2], the “change in SHG signal (M)” value (calmodulin (CaM)) is reported as −12.6%.
In the case of `O=C(O)CCCC[C@@H]1SC[C@@H]2NC(=O)N[C@@H]21` [biotin], the Kd [1] is listed as roughly 0.01 µM.
With `c1c[nH]cn1` [imidazole] the “SHG signal level of labeled protein incubated in the presence of imidazole” value (His-tag-Ni-NTA linkage) was “less than 10 % of the original signal”.
For `OC[C@H]1O[C@@H](O[C@H]2[C@H](O)[C@@H](O)C(O)O[C@@H]2CO)[C@H](O)[C@@H](O)[C@H]1O` (some centres unmarked) [lactose], the “change in SHG intensity (M)” value [2] was “no effect” and the “change in SHG signal (M)” value [2] was 0.44%.
With `OC[C@H]1O[C@H](O[C@H]2[C@H](O)[C@@H](O)[C@H](O)O[C@@H]2CO)[C@H](O)[C@@H](O)[C@@H]1O` [maltose] the “SHG response (induced conformational change) of MBP” value [3] was “only responded to addition of maltose”, the “change in SHG intensity (M)” value [2] was 27.4% and the “change in SHG signal (M)” value [2] was −33.8%.
